These results are taken from EP4707284A1, “HETEROCYCLIC COMPOUND AND USE THEREOF” (Otsuka Pharmaceutical Co., Ltd., priority 2023, dated 2024).

The data set is classed as physicochemical. The settings on record: Tris-hydrochloric acid buffer (pH 7.5) 50 mmol/L, magnesium chloride 5 mmol/L, evaluation compound 1 µmol/L, 37°C, 60 minutes, average of duplicate. As to the method: The conversion from the evaluation compounds to brexpiprazole in a buffer (i.e., the stability of the evaluation compounds) was evaluated.
The Example 1 compound was dissolved in acetonitrile/water (1:1, v/v) to 10 mmol/L and further diluted with acetonitrile/water (1:1, v/v) to 100 µmol/L for use.
The other Example compounds and the Reference Example 5 compound to Reference Example 7 compound were each dissolved in DMSO to 10 mmol/L and further diluted with acetonitrile to 100 µmol/L for use, except for the following compounds.
The compounds of Examples 52, 95, 96, 117, and 130 (EX 52, EX 95, EX 96, EX 117, and EX 130) were dissolved in acetonitrile/water (8:2, v/v) to 10 mmol/L and further diluted with acetonitrile to 100 µmol/L for use.
The compound of Example 97 (EX 97) was dissolved in acetonitrile/water (8:2, v/v) to 10 mmol/L and further diluted with acetonitrile/water (8:2, v/v) to 100 µmol/L for use.
The compounds of Examples 15 and 116 (EX 15 and EX 116) were dissolved in DMSO to 1 mmol/L and further diluted with acetonitrile to 100 µmol/L for use.
These evaluation compound solutions were prepared at the time of use.
The reaction was conducted by preparing each reaction solution such that the final concentration of each component was as follows. The test was conducted in duplicate.
For the compounds of Examples 1 to 8, 10 to 19, 26 to 27, 37, 50, 87 to 89, 91, 116, 121, 123, 150, and 151 (EX 1 to EX 8, EX 10 to EX 19, EX 26 to EX 27, EX 37, EX 50, EX 87 to EX 89, EX 91, EX 116, EX 121, EX 123, EX 150, and EX 151), and the compounds of Reference Examples 5 to 7 (REX 5 to REX 7), the reaction solution without the evaluation compound (198 µl) was pre-incubated at 37°C for 3 minutes, and then each of the evaluation compound solutions (2 µl) was added and stirred; thereafter, the reaction was started at 37°C. At 0 minutes or 60 minutes after the start of the reaction, the reaction was stopped by adding and stirring a reaction stop solution (1000 µl) composed of acetonitrile/isopropanol (4:1, v/v) containing internal standard substances. However, the 0-minute reaction sample (198 µl) was prepared by adding the evaluation compound (2 µl) after adding the reaction stop solution (1000 µl). The samples after stopping the reaction were used as the measurement samples. Calibration curve samples with the same composition were prepared (final concentrations of the evaluation compounds and brexpiprazole: 0.01, 0.1, and 1 µmol/L, with the proviso that for the evaluation compounds only, the 0-minute reaction samples were also used as calibration curve samples for 1 µmol/L).
For the compounds of Examples 24 to 25, 28 to 29, 32 to 36, 40 to 49, 51 to 60, 62 to 64, 66 to 77, 80 to 86, 90, 92 to 111, 113, 115, 117 to 120, 122, 124 to 130, 132 to 147, and 152 to 160 (EX 24 to EX 25, EX 28 to EX 29, EX 32 to EX 36, EX 40 to EX 49, EX 51 to EX 60, EX 62 to EX 64, EX 66 to EX 77, EX 80 to EX 86, EX 90, EX 92 to EX 111, EX 113, EX 115, EX 117 to EX 120, EX 122, EX 124 to EX 130, EX 132 to EX 147, and EX 152 to EX 160), the reaction solution without the evaluation compound (148.5 µl) was pre-incubated at 37°C for 3 minutes, and then each of the evaluation compound solutions (1.5 µl) was added and stirred; thereafter, the reaction was started at 37°C. At 0 minutes or 60 minutes after the start of the reaction, the reaction was stopped by adding and stirring a reaction stop solution (600 µl) composed of acetonitrile/isopropanol (4:1, v/v) containing internal standard substances. However, the 0-minute reaction sample (148.5 µl) was prepared by adding the evaluation compound (1.5 µl) after adding the reaction stop solution (600 µl). The samples after stopping the reaction were used as the measurement samples. […]
For `O=C(OCCCCCCOP(=O)([O-])OC[N+]1(CCCCOc2ccc3ccc(=O)[nH]c3c2)CCN(c2cccc3sccc23)CC1)c1ccc([N+](=O)[O-])cc1` [EX 85], the “Concentration of brexpiprazole formed” value stood at 0.00 µM and the “Concentration of evaluation compound decreased” value is recorded as 0.04 µM.

Turning to `O=c1ccc2ccc(OCCCC[N+]3(COP(=O)([O-])OC[C@H]4CC[C@H](CO)CC4)CCN(c4cccc5sccc45)CC3)cc2[nH]1` [EX 86], the “Concentration of brexpiprazole formed” value was determined as 0.00 µM and the “Concentration of evaluation compound decreased” value is recorded as 0.05 µM.

On to `COP(=O)([O-])OC[N+]1(CCCCOc2ccc3ccc(=O)[nH]c3c2)CCN(c2cccc3sccc23)CC1` [EX 87], for which the “Concentration of brexpiprazole formed” value is recorded as 0.00 µM and the “Concentration of evaluation compound decreased” value is on record as 0.00 µM.

For `CCCOP(=O)([O-])OC[N+]1(CCCCOc2ccc3ccc(=O)[nH]c3c2)CCN(c2cccc3sccc23)CC1` [EX 88], the “Concentration of brexpiprazole formed” value was 0.00 µM and the “Concentration of evaluation compound decreased” value is recorded as -0.01 µM.

On to `CCCCOP(=O)([O-])OC[N+]1(CCCCOc2ccc3ccc(=O)[nH]c3c2)CCN(c2cccc3sccc23)CC1` [EX 89], for which the “Concentration of brexpiprazole formed” value is listed as 0.00 µM and the “Concentration of evaluation compound decreased” value was -0.07 µM.

Regarding `CC(C)COP(=O)([O-])OC[N+]1(CCCCOc2ccc3ccc(=O)[nH]c3c2)CCN(c2cccc3sccc23)CC1` [EX 90], the “Concentration of brexpiprazole formed” value is 0.00 µM and the “Concentration of evaluation compound decreased” value is listed as -0.03 µM.

Take `O=c1ccc2ccc(OCCCC[N+]3(COP(=O)([O-])OCC4CC4)CCN(c4cccc5sccc45)CC3)cc2[nH]1` [EX 91]: the “Concentration of brexpiprazole formed” value came to 0.00 µM and the “Concentration of evaluation compound decreased” value is 0.12 µM.

On to `O=c1ccc2ccc(OCCCC[N+]3(COP(=O)([O-])OCCCCCO)CCN(c4cccc5sccc45)CC3)cc2[nH]1` [EX 92], for which the “Concentration of brexpiprazole formed” value is 0.00 µM and the “Concentration of evaluation compound decreased” value is given as 0.11 µM.

Regarding `O=c1ccc2ccc(OCCCC[N+]3(COP(=O)([O-])OCCOCCO)CCN(c4cccc5sccc45)CC3)cc2[nH]1` [EX 93], the “Concentration of brexpiprazole formed” value is given as 0.00 µM and the “Concentration of evaluation compound decreased” value was -0.01 µM.

Regarding `CCOCCOP(=O)([O-])OC[N+]1(CCCCOc2ccc3ccc(=O)[nH]c3c2)CCN(c2cccc3sccc23)CC1` [EX 94], the “Concentration of brexpiprazole formed” value was 0.00 µM and the “Concentration of evaluation compound decreased” value is given as -0.07 µM.

As to `CCCOCCOP(=O)([O-])OC[N+]1(CCCCOc2ccc3ccc(=O)[nH]c3c2)CCN(c2cccc3sccc23)CC1` [EX 95], the “Concentration of brexpiprazole formed” value was 0.00 µM and the “Concentration of evaluation compound decreased” value is given as -0.01 µM.

Turning to `CCCCOCCOP(=O)([O-])OC[N+]1(CCCCOc2ccc3ccc(=O)[nH]c3c2)CCN(c2cccc3sccc23)CC1` [EX 96], the “Concentration of brexpiprazole formed” value was found to be 0.00 µM and the “Concentration of evaluation compound decreased” value worked out at 0.03 µM.

`CCOCCCOP(=O)([O-])OC[N+]1(CCCCOc2ccc3ccc(=O)[nH]c3c2)CCN(c2cccc3sccc23)CC1` [EX 97]: the “Concentration of brexpiprazole formed” value turned out to be 0.00 µM and the “Concentration of evaluation compound decreased” value is listed as 0.09 µM.

On to `CCOCCOCCOP(=O)([O-])OC[N+]1(CCCCOc2ccc3ccc(=O)[nH]c3c2)CCN(c2cccc3sccc23)CC1` [EX 98], for which the “Concentration of brexpiprazole formed” value is 0.00 µM and the “Concentration of evaluation compound decreased” value is listed as -0.02 µM.

`CC1(C)O[C@H]2[C@@H](O1)[C@@H](COP(=O)([O-])OC[N+]1(CCCCOc3ccc4ccc(=O)[nH]c4c3)CCN(c3cccc4sccc34)CC1)O[C@@H]1OC(C)(C)O[C@@H]12` [EX 100]: the “Concentration of brexpiprazole formed” value came out at 0.00 µM and the “Concentration of evaluation compound decreased” value amounted to 0.05 µM.

Take `CC(=O)OCCCCCCOP(=O)([O-])OC[N+]1(CCCCOc2ccc3ccc(=O)[nH]c3c2)CCN(c2cccc3sccc23)CC1` [EX 101]: the “Concentration of brexpiprazole formed” value was determined as 0.00 µM and the “Concentration of evaluation compound decreased” value turned out to be 0.08 µM.

With `CC(C)(C)C(=O)OCCCCCCOP(=O)([O-])OC[N+]1(CCCCOc2ccc3ccc(=O)[nH]c3c2)CCN(c2cccc3sccc23)CC1` [EX 102], the “Concentration of brexpiprazole formed” value is reported as 0.00 µM and the “Concentration of evaluation compound decreased” value is listed as 0.07 µM.

With `CCOC(=O)[C@@H](C)OP(=O)([O-])OC[N+]1(CCCCOc2ccc3ccc(=O)[nH]c3c2)CCN(c2cccc3sccc23)CC1` [EX 103], the “Concentration of brexpiprazole formed” value is reported as 0.00 µM and the “Concentration of evaluation compound decreased” value is -0.01 µM.

For `CCOC(=O)[C@H](C)OP(=O)([O-])OC[N+]1(CCCCOc2ccc3ccc(=O)[nH]c3c2)CCN(c2cccc3sccc23)CC1` [EX 104], the “Concentration of brexpiprazole formed” value is 0.00 µM and the “Concentration of evaluation compound decreased” value was determined as 0.20 µM.

On to `CC(C)OC(=O)[C@@H](C)OP(=O)([O-])OC[N+]1(CCCCOc2ccc3ccc(=O)[nH]c3c2)CCN(c2cccc3sccc23)CC1` [EX 105], for which the “Concentration of brexpiprazole formed” value worked out at 0.00 µM and the “Concentration of evaluation compound decreased” value is recorded as 0.05 µM.

For the compound `C[C@@H](OP(=O)([O-])OC[N+]1(CCCCOc2ccc3ccc(=O)[nH]c3c2)CCN(c2cccc3sccc23)CC1)C(=O)OC(C)(C)C` [EX 106], the “Concentration of brexpiprazole formed” value is on record as 0.00 µM and the “Concentration of evaluation compound decreased” value is 0.07 µM.

Regarding `CC(C)COC(=O)[C@@H](C)OP(=O)([O-])OC[N+]1(CCCCOc2ccc3ccc(=O)[nH]c3c2)CCN(c2cccc3sccc23)CC1` [EX 107], the “Concentration of brexpiprazole formed” value amounted to 0.00 µM and the “Concentration of evaluation compound decreased” value is 0.07 µM.

With `CCC(CC)COC(=O)[C@@H](C)OP(=O)([O-])OC[N+]1(CCCCOc2ccc3ccc(=O)[nH]c3c2)CCN(c2cccc3sccc23)CC1` [EX 108], the “Concentration of brexpiprazole formed” value amounted to 0.00 µM and the “Concentration of evaluation compound decreased” value was 0.08 µM.

Regarding `CCOCCOC(=O)[C@@H](C)OP(=O)([O-])OC[N+]1(CCCCOc2ccc3ccc(=O)[nH]c3c2)CCN(c2cccc3sccc23)CC1` [EX 109], the “Concentration of brexpiprazole formed” value is given as 0.00 µM and the “Concentration of evaluation compound decreased” value is recorded as -0.02 µM.

As for `CCOC(=O)C(CC)OP(=O)([O-])OC[N+]1(CCCCOc2ccc3ccc(=O)[nH]c3c2)CCN(c2cccc3sccc23)CC1` (centres unmarked) [EX 110], the “Concentration of brexpiprazole formed” value stood at 0.00 µM and the “Concentration of evaluation compound decreased” value was 0.07 µM.

Turning to `CCOC(=O)C[C@@H](OP(=O)([O-])OC[N+]1(CCCCOc2ccc3ccc(=O)[nH]c3c2)CCN(c2cccc3sccc23)CC1)C(=O)OCC` [EX 111], the “Concentration of brexpiprazole formed” value was 0.00 µM and the “Concentration of evaluation compound decreased” value is on record as 0.02 µM.

Consider `O=c1ccc2ccc(OCCCC[N+]3(COP(=O)([O-])OCC(F)F)CCN(c4cccc5sccc45)CC3)cc2[nH]1` [EX 115], for which the “Concentration of brexpiprazole formed” value amounted to 0.00 µM and the “Concentration of evaluation compound decreased” value is recorded as 0.05 µM.

Consider `C[C@@H]1CN(CCOP(=O)([O-])OC[N+]2(CCCCOc3ccc4ccc(=O)[nH]c4c3)CCN(c3cccc4sccc34)CC2)C[C@H](C)O1` [EX 116], for which the “Concentration of brexpiprazole formed” value turned out to be 0.00 µM and the “Concentration of evaluation compound decreased” value is 0.09 µM.
